Source: PubChem BioAssay AID2060889 (Molecular Pharmacology Branch, DTP, NCI, 2025)

Tested on: LG0567-F671-PDC complex spheroids viability
Test: Anticancer human tumor LG0567-F671-PDC patient-derived lung adenocarcinoma cell line growth inhibition [RAS]
Conditions: for IC50: curve of first compound; for viability, T/C: stronger effect = lower value
How it was run: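 Multi-cell-type spheroids: tumor cells plus HUVEC endothelial cells and mesenchymal stem cells. RAS-pathway inhibitors were combined with targeted agents, each dosed in half-log steps down from clinical Cmax, or from 10 microM when Cmax was unknown.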
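Further: spheroids exposed to compound for seven days before readout.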
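Wherever IC50 is given: luminescence signal used as a proxy for viable cells.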

Question: With C=CC(=O)Nc1cc(Nc2nccc(-c3cn(C)c4ccccc34)n2)c(OC)cc1N(C)CCN(C)C + C=CC(=O)N1CCN(c2nc(OCC3CCCN3C)nc3c(F)c(-c4nc(N)cc(C)c4C(F)(F)F)c(Cl)cc23)C(C)C1 as the compound, how does the IC50 (second compound 0.00316 µM) read?
Answer: < 3.16 nM

Question: What about the IC50 (second compound 0.01 µM) of the same compound?
Answer: < 3.16 nM

Question: What about the IC50 (second compound 0.0316 µM) of the same compound?
Answer: < 3.16 nM

Question: And the IC50 (second compound 0.1 µM)?
Answer: < 3.16 nM

Question: What about the IC50 (second compound 0.316 µM) of the same compound?
Answer: < 3.16 nM

Question: What about the IC50 (second compound 1 µM) of the same compound?
Answer: < 3.16 nM

Question: And the viability, T/C (second compound 0.00316 µM, first compound 0.00316 µM)?
Answer: 18.7%

Question: And the viability, T/C (second compound 0.00316 µM, first compound 0.01 µM)?
Answer: 15.6%

Question: What about the viability, T/C (second compound 0.00316 µM, first compound 0.0316 µM) of the same compound?
Answer: 12.6%

Question: What about the viability, T/C (second compound 0.00316 µM, first compound 0.1 µM) of the same compound?
Answer: 12.6%

Question: And the viability, T/C (second compound 0.00316 µM, first compound 0.316 µM)?
Answer: 4.81%

Question: And the viability, T/C (second compound 0.00316 µM, first compound 1 µM)?
Answer: 3.52%

Question: And the viability, T/C (second compound 0.01 µM, first compound 0.00316 µM)?
Answer: 15.1%

Question: What about the viability, T/C (second compound 0.01 µM, first compound 0.01 µM) of the same compound?
Answer: 12.1%

Question: What about the viability, T/C (second compound 0.01 µM, first compound 0.0316 µM) of the same compound?
Answer: 10%

Question: What about the viability, T/C (second compound 0.01 µM, first compound 0.1 µM) of the same compound?
Answer: 8.19%

Question: What about the viability, T/C (second compound 0.01 µM, first compound 0.316 µM) of the same compound?
Answer: 4.72%

Question: And the viability, T/C (second compound 0.01 µM, first compound 1 µM)?
Answer: 2.49%

Question: What about the viability, T/C (second compound 0.0316 µM, first compound 0.00316 µM) of the same compound?
Answer: 13.3%

Question: What about the viability, T/C (second compound 0.0316 µM, first compound 0.01 µM) of the same compound?
Answer: 12.7%

Question: And the viability, T/C (second compound 0.0316 µM, first compound 0.0316 µM)?
Answer: 9.76%

Question: And the viability, T/C (second compound 0.0316 µM, first compound 0.1 µM)?
Answer: 7.26%

Question: What about the viability, T/C (second compound 0.0316 µM, first compound 0.316 µM) of the same compound?
Answer: 6.15%

Question: And the viability, T/C (second compound 0.0316 µM, first compound 1 µM)?
Answer: 2.62%

Question: And the viability, T/C (second compound 0.1 µM, first compound 0.00316 µM)?
Answer: 15%

Question: And the viability, T/C (second compound 0.1 µM, first compound 0.01 µM)?
Answer: 11.8%

Question: And the viability, T/C (second compound 0.1 µM, first compound 0.0316 µM)?
Answer: 9.84%

Question: What about the viability, T/C (second compound 0.1 µM, first compound 0.1 µM) of the same compound?
Answer: 7.87%

Question: What about the viability, T/C (second compound 0.1 µM, first compound 0.316 µM) of the same compound?
Answer: 4.28%

Question: What about the viability, T/C (second compound 0.1 µM, first compound 1 µM) of the same compound?
Answer: 2.86%

Question: And the viability, T/C (second compound 0.316 µM, first compound 0.00316 µM)?
Answer: 14%

Question: And the viability, T/C (second compound 0.316 µM, first compound 0.01 µM)?
Answer: 11.4%

Question: What about the viability, T/C (second compound 0.316 µM, first compound 0.0316 µM) of the same compound?
Answer: 9.92%

Question: And the viability, T/C (second compound 0.316 µM, first compound 0.1 µM)?
Answer: 6.96%

Question: And the viability, T/C (second compound 0.316 µM, first compound 0.316 µM)?
Answer: 4.73%

Question: And the viability, T/C (second compound 0.316 µM, first compound 1 µM)?
Answer: 3.38%

Question: What about the viability, T/C (second compound 1 µM, first compound 0.00316 µM) of the same compound?
Answer: 13.3%

Question: And the viability, T/C (second compound 1 µM, first compound 0.01 µM)?
Answer: 12.2%

Question: What about the viability, T/C (second compound 1 µM, first compound 0.0316 µM) of the same compound?
Answer: 11.4%

Question: And the viability, T/C (second compound 1 µM, first compound 0.1 µM)?
Answer: 10.6%

Question: What about the viability, T/C (second compound 1 µM, first compound 0.316 µM) of the same compound?
Answer: 4.57%

Question: And the viability, T/C (second compound 1 µM, first compound 1 µM)?
Answer: 3.23%
